Laboratory results from ChEMBL document CHEMBL3352377, “Discovery of selective and orally bioavailable protein kinase Cθ (PKCθ) inhibitors from a fragment hit” (J Med Chem, 2015).

Experiments:
[1] = biological target: Protein kinase C theta type (Homo sapiens, UniProt Q04759)
Description: Inhibition of human recombinant PKCtheta expressed in Sf21 cells using Bio-cdc peptide substrate and ATP after 60 mins by time-resolved fluorescence in-vitro kinase assay

[2] = biological target: Protein kinase C alpha type (Homo sapiens, UniProt P17252)
[3] = Permeability from apical to basolateral side in MDCK2-MDR1 cells at pH 7.4; type: ADME, cell-based, Canis lupus familiaris, MDCK-II; settings: dog, MDCK-MDR1, pH 7.4; read-out: permeability
[4] = cells; settings: Homo sapiens, T-Blast, 24 h
Description: Inhibition of anti-CD3/anti-CD28 antibody-induced IL2 production in human T-Blast cells after 24 hrs

[5] = Unbound intrinsic clearance in human microsomes; type: ADME, Microsome
[6] = Unbound intrinsic clearance in rat microsomes; type: ADME, Microsome
[7] = Unbound intrinsic clearance in mouse microsomes; type: ADME, Microsome

Protein kinase C theta type, sequence (Q04759 whole entry): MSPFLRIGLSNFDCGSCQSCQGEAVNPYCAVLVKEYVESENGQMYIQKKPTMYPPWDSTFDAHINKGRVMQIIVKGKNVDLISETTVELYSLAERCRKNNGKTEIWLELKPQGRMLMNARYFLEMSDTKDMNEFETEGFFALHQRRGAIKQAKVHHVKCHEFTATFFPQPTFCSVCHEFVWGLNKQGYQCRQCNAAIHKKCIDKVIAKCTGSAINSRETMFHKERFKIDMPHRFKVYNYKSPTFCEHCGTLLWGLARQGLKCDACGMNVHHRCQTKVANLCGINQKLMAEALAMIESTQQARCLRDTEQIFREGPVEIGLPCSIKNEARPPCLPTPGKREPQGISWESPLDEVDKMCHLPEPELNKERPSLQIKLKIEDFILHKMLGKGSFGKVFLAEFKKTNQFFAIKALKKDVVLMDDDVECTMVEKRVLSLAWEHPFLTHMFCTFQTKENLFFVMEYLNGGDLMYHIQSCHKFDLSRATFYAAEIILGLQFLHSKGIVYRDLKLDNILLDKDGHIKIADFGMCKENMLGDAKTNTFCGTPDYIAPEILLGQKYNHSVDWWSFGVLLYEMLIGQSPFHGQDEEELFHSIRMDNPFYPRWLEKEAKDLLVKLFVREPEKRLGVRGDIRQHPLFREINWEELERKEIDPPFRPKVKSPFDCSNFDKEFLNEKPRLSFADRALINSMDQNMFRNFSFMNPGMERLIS

| Structure (SMILES) | IC50 [1] | IC50 [2] | Papp A→B [3] | IC50 [4] | CL free [5] | CL free [6] | CL free [7] |
| --- | --- | --- | --- | --- | --- | --- | --- |
| O=C1CN2C(=NN1)COc1ccc(NC3CCNC3)cc12 (stereo not drawn) | 3.3 µM | – | – | – | – | – | – |
| CCC1C(=O)NN=C2COc3ccc(NC4CNC4)cc3N21 (stereo not drawn) | 1 µM | 5.4 µM | – | – | – | – | – |
| CC(N)CNc1ccc2c(c1)N1CC(=O)NN=C1CO2 (stereo not drawn) | 18 µM | – | – | – | – | – | – |
| CC1C(=O)NN=C2COc3cc(C(F)(F)F)c(CC4CNC4)cc3N21 (stereo not drawn) | 0.059 µM | 1.6 µM | 0.5 ×10⁻⁶ cm/s | 0.39 µM | < 46.7 mL/min/kg | 81.7 mL/min/kg | – |
| O=C1CN2C(=NN1)COc1ccc(NC(=O)C3CCNCC3)cc12 | 3.5 µM | – | – | – | – | – | – |
| O=C1CN2C(=NN1)COc1ccc(NC3CCCNCC3)cc12 (stereo not drawn) | 8.9 µM | – | – | – | – | – | – |
| O=C1CN2C(=NN1)COc1ccc(NC(=O)CC3CCNCC3)cc12 | > 50 µM | – | – | – | – | – | – |
| CC1C(=O)NN=C2COc3ccc(NC4CNC4)cc3N21 (stereo not drawn) | 0.23 µM | 9.4 µM | 0.42 ×10⁻⁶ cm/s | 2.7 µM | 33 mL/min/kg | 48.3 mL/min/kg | – |
| O=C1CN2C(=NN1)COc1ccc(NC3CCCNC3)cc12 (stereo not drawn) | 14 µM | – | – | – | – | – | – |
| CN1CCC(C(=O)Nc2ccc3c(c2)N2CC(=O)NN=C2CO3)CC1 | 4.5 µM | – | – | – | – | – | – |
| Cc1cc2c(cc1NC1CNC1)N1C(=NNC(=O)[C@@H]1C)CO2 | 0.39 µM | 3 µM | 0.16 ×10⁻⁶ cm/s | 4.2 µM | – | – | < 73.3 mL/min/kg |
| O=C1NN=C2COc3ccc(NC4CNC4)cc3N2C1c1ccccc1 (stereo not drawn) | > 50 µM | > 50 µM | – | – | – | – | – |
| O=C1CN2C(=NN1)COc1ccc(NC(=O)C3CCNC3)cc12 (stereo not drawn) | 46 µM | – | – | – | – | – | – |
| O=C1CN2C(=NN1)COc1ccc(NC3CNC3)cc12 | 1.3 µM | 7.1 µM | – | – | – | – | – |
| C[C@H]1C(=O)NN=C2COc3cc(C(F)(F)F)c(NC4CNC4)cc3N21 | – | 2.9 µM | 0.25 ×10⁻⁶ cm/s | 1 µM | 85 mL/min/kg | 118 mL/min/kg | < 120 mL/min/kg |
| O=C1CN2C(=NN1)COc1ccc(NC3CCNCC3)cc12 | 21 µM | – | – | – | – | – | – |

| Structure (SMILES) | IC50 [1] | IC50 [2] | Papp A→B [3] | IC50 [4] | CL free [5] | CL free [6] | CL free [7] |
| --- | --- | --- | --- | --- | --- | --- | --- |
| Cc1cc2c(cc1NC1CNC1)N1C(=NNC(=O)C1C)CO2 (stereo not drawn) | 0.11 µM | 4.1 µM | 0.31 ×10⁻⁶ cm/s | 0.43 µM | < 33 mL/min/kg | 61.7 mL/min/kg | – |
| O=C1CN2C(=NN1)COc1ccc(NCC3CCNCC3)cc12 | 31 µM | – | – | – | – | – | – |
| O=C1CN2C(=NN1)COc1ccc(NCC3CNC3)cc12 | 17 µM | – | – | – | – | – | – |
| O=C1CN2C(=NN1)COc1ccc(NC(=O)C3CNC3)cc12 | 19 µM | – | – | – | – | – | – |
| CC(C)c1cc2c(cc1NC1CNC1)N1C(=NNC(=O)C1C)CO2 (stereo not drawn) | 0.13 µM | 2.2 µM | 0.28 ×10⁻⁶ cm/s | 0.34 µM | < 33 mL/min/kg | 88.3 mL/min/kg | – |
| CC1C(=O)NN=C2COc3cc(F)c(NC4CNC4)cc3N21 (stereo not drawn) | 0.1 µM | 6.9 µM | 0.86 ×10⁻⁶ cm/s | 0.31 µM | < 26.7 mL/min/kg | 50 mL/min/kg | – |
| CN(C)Cc1ccc2c(c1)OCC1=NNC(=O)CN12 | 16 µM | – | – | – | – | – | – |
| CN(C)CC(=O)Nc1ccc2c(c1)N1CC(=O)NN=C1CO2 | 46 µM | – | – | – | – | – | – |
| CC1C(=O)NN=C2COc3cc(C(F)(F)F)c(NC4CNC4)cc3N21 (stereo not drawn) | – | 2.2 µM | 0.85 ×10⁻⁶ cm/s | 0.23 µM | 56.7 mL/min/kg | < 67 mL/min/kg | – |
| O=C1CN2C(=NN1)COc1ccc(NCC3CCNC3)cc12 (stereo not drawn) | 20 µM | – | – | – | – | – | – |
| CC1C(=O)NN=C2COc3cc(C(F)(F)F)c(OC4CNC4)cc3N21 (stereo not drawn) | 0.19 µM | 3 µM | – | 0.91 µM | 51.7 mL/min/kg | < 73.3 mL/min/kg | – |
| O=C1CN2C(=NN1)COc1ccc(NC3COC3)cc12 | > 50 µM | – | – | – | – | – | – |
| O=C1NN=C2COc3ccc(NC4CNC4)cc3N2C1C1CC1 (stereo not drawn) | 3.5 µM | > 50 µM | – | – | – | – | – |
| C[C@H]1C(=O)NN=C2COc3cc(-c4ccccc4)c(NC4CNC4)cc3N21 | 0.76 µM | 6.6 µM | 0.23 ×10⁻⁶ cm/s | 2.4 µM | 110 mL/min/kg | < 103 mL/min/kg | 417 mL/min/kg |
| O=C1CN2C(=NN1)COc1ccc(NC3CCC3)cc12 | 38 µM | – | – | – | – | – | – |
